Experimental data as given in EP0452101B1, “Spiro bridged and unbridged heterocyclic compounds” (ISRAEL INSTITUTE FOR BIOLOGICAL RESEARCH, priority 1990, dated 1991).
Where two headings read alike, the source gives them in different places.

Assays:
[1] = target: T1, m1 receptors (Rattus norvegicus, UniProt P08482); assay: PI hydrolysis in CHO cells transfected with m1 receptors; assay type: cell-based; details: CHO m1
T1 construct: expressed in transfected cells; host or cells: CHO cells
T1 sequence (P08482 1-460): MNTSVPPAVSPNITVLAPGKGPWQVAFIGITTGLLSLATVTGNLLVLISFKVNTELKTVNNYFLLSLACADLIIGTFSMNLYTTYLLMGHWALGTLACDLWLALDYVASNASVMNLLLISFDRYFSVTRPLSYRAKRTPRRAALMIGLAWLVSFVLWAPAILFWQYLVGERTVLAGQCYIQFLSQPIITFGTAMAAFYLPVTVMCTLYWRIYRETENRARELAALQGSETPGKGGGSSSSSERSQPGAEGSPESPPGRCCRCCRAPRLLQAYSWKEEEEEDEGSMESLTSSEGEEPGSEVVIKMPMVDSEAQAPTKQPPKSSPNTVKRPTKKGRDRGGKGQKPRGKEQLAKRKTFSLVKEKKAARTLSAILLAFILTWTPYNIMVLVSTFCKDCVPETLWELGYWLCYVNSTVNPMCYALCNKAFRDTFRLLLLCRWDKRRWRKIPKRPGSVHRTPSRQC

[2] = target: T2, m4 subtype receptors (PC12 cells) (Rattus norvegicus, UniProt P08485); assay: Inhibition of adenylate cyclase activity in PC12 cells; assay type: cell-based; details: PC12 m4; tested at 1mM
T2 construct: endogenous in cells; host or cells: PC12 cells
T2 sequence (P08485 1-478): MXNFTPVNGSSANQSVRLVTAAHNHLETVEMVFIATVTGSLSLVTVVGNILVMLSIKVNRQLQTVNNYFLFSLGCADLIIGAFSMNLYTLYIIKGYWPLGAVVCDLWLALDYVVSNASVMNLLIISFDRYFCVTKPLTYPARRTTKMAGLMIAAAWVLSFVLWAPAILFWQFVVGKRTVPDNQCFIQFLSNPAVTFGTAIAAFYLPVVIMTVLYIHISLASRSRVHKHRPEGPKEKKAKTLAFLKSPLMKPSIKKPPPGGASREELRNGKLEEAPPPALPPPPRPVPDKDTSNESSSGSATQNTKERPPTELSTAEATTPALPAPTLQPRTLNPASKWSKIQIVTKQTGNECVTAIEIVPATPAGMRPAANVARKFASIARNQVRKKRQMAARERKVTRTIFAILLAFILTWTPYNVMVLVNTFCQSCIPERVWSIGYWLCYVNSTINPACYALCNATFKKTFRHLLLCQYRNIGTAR
Procedure: (§1) The new compounds AF150, AF151, AF150(S) and AF125 were assayed for their ability to stimulate PI in CHO cells transfected with m1 and m3 receptors, respectively (Buck and Fraser, loc cit), and in cultured human neuroblastoma cells, line SK-N-SH, which express mainly the m3 subtype, but not the m1 subtype (Pinkas-Kramarski et al, Neurosci. Lett. 188: 335-340, 1990; Luthin et al Mol. Pharmacol. 34: 327-333, 1988). These compounds were also assayed on cultured PC12 cells which express mainly m4 subtype receptors and are coupled to inhibition of AC activity (Pinkas-Kramarski et al, loc cit).
(§2) Stimulation of PI breakdown was assayed using the method described by Stein et al (EMBO J. 7: 3031-3035, 1988), and modulation of AC activity was assayed by the method of Stein et al, loc cit and Pinkas-Kramarski et al (FEBS Lett., 239: 174-178, 1988). […]

[3] = test system: muscarinic receptors; assay: (-)3H-QNB binding to rat cerebral cortex homogenates with and without Cu++ treatment
[4] = target: T3, M1 muscarinic receptor (Rattus norvegicus, UniProt P08482); assay: Displacement of 3H-QNB from rat cerebral cortex, 50 mM phosphate buffer; assay type: binding; details: for RATIOS c:a: KH2 cerebellum : KH1 cortex (3H-QNB); for % H1 / % L1: cortex, Table 5; for RATIOS b:a: KL1 : KH1 cortex (3H-QNB); for RATIOS d:b: KL2 cerebellum : KL1 cortex (3H-QNB)
T3 sequence (P08482 1-460): T1 sequence (P08482 1-460)

[5] = test system: rat cerebral cortex synaptosomes; assay: Synaptosomal 3H-ACh release, basal and K+-evoked; details: 0.1 mM
Text: The effects of AF150 (and for comparison purposes, AF125, MeN-A-343 and oxotremorine) on basal- and K^+-evoked release of ^3H-ACh were studied on synaptosomes prepared from rat cerebral cortex using the methods described in detail by Pittel et al (J. Neurochem., 55: 665-672, 1990). […] On the other hand, the action of AF150 on presynaptic muscarinic receptors, causing an increase in K^+-evoked ACh release, can be considered either as an M2 antagonistic or an M1 agonistic effect. […] The existence of muscarinic autoreceptors that increase ACh release was manifested also in the PNS in smooth muscle preparation (Kilbinger and Nafziger, Naunyn Schmiedebergs Arch. Pharmacol. 328: 304-309, 1985).

[6] = target: T3, M1 muscarinic receptor; assay: Displacement of 3H-PZ from rat cerebral cortex, 10 mM phosphate buffer; assay type: binding; design: from tissue; host or cells: rat cerebral cortex homogenates; details: for RATIOS c:a: KH cerebellum (3H-QNB) : KH cortex (3H-PZ)
[7] = target: T4, M2 muscarinic receptors (Rattus norvegicus, UniProt P10980); assay: Displacement of 3H-QNB from rat cerebellum, 50 mM phosphate buffer; assay type: binding; details: for Ki / % H / % H2 / %L / % L2: cerebellum; for RATIOS d:c: KL2 : KH2 cerebellum (3H-QNB)
T4 construct: displacing from rat brain homogenates, cerebellum or frontal cortex; from tissue; host or cells: rat cerebellum homogenates
T4 sequence (P10980 1-466): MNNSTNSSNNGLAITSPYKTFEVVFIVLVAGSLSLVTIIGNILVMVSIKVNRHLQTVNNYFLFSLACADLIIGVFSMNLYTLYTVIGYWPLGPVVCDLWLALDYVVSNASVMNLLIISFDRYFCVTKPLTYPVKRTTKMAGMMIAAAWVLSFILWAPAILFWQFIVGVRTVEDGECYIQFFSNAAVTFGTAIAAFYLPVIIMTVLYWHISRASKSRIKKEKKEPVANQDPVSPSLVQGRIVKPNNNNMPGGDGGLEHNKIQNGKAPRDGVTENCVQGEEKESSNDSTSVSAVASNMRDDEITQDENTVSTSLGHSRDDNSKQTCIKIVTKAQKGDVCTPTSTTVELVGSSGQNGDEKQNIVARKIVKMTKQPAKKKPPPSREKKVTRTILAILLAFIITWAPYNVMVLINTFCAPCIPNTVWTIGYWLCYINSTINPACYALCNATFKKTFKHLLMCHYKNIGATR

[8] = target: T3, M1 muscarinic receptor; assay: Displacement of 3H-PZ from cortical binding sites, Tris/Mn buffer, with and without GppNHp; design: from tissue; host or cells: rat cerebral cortex homogenates
Text: The binding of agonists to M1 muscarinic receptors and the effect of guanylyl imidophosphate (GppNHp). Agonists are known to be coupled with guanine nucleotide binding proteins (G proteins).
Non-hydrolyzable guanine nucleotides such as GppNHp dissociate the G protein from the receptor and decrease the affinity of the receptor for agonists but not for antagonists. […] Molec.
Under these conditions agonists of high efficacy ("full agonists") bind directly to the M1 receptor subtype with two affinities. […] The ratio of low and high affinities (KL/KH) of the M1 receptor may predict the relative efficacies of agonists to activate putative M1 receptor-mediated second messenger systems.
KH, KL, %H and %L are the apparent inhibition constants of the tested ligands for the high and low affinity sites, respectively. G is GppNHp (guanylyl imidodiphosphate), and was used in 0.1 mM concentration. Displacement of ^3H-PZ from cortical binding sites was performed in Tris/Mn buffer (pH 7.4) for one hour at 25°C; the buffer included 1 mM EDTA and 2mM Mn^++ ions. […] The binding data were analyzed using a GraphPAD program and were fitted to one or two components. Values are means from 1-3 experiments carried out in triplicates.

[9] = target: T5, m3 subtype (SK-N-SH cells) (Homo sapiens, UniProt P20309); assay: PI hydrolysis in SK-N-SH neuroblastoma cells; assay type: cell-based
T5 construct: endogenous in cells; host or cells: SK-N-SH human neuroblastoma cells
T5 sequence (P20309 whole entry): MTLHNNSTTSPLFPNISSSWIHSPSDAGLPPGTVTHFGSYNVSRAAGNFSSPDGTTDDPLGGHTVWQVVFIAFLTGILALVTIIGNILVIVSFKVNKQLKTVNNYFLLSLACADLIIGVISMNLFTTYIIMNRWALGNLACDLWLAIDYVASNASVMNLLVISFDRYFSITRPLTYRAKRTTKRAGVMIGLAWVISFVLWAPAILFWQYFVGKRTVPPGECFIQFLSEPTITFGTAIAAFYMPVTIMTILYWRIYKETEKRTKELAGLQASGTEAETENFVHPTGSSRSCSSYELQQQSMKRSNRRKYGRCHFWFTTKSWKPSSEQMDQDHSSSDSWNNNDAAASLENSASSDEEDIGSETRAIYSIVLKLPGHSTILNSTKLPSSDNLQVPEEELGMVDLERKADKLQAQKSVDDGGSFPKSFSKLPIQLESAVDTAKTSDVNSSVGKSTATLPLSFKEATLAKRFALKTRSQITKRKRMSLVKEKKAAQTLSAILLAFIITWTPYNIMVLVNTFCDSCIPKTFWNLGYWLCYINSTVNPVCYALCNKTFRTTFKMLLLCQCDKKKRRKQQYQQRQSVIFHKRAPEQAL
Procedure: as §1, §2

[10] = with Cu++ pretreatment (100 µM, 30 minutes)
[11] = with Cu++ pretreatment (100 µM, 30 minutes), read-out: KL
[12] = without pretreatment, read-out: KH
[13] = without pretreatment, read-out: KL
[14] = 3H-QNB-Binding KH2 (c), Table 5
[15] = 3H-QNB-Binding KL2 (d), Table 5

SMILES	%H (% of high affinity state) [3, 10] [%]	Ki [3, 11] [nM]	%H (% of high affinity state) ([3]; without pretreatment) [%]	Ki [3, 12] [nM]	Ki [3, 13] [nM]	RATIOS c:a [4]	% H1 [4] [%]	K+-evoked 3H-ACh release [5] [%]	% H [6] [%]	Ki ([6]; 3H-PZ-Binding KH (a)) [nM]	RATIOS c:a [6]	Ki [7, 14] [nM]	% H ([7]; Table 4) [%]	% H2 ([7]; Table 5) [%]	RATIOS b:a [4]	RATIOS d:b [4]	% L1 [4] [%]	Ki ([7]; 3H-QNB-Binding KH (c), Table 4) [nM]	Ki [7, 15] [nM]	Ki ([7]; 3H-QNB-Binding KL (d), Table 4) [nM]	further results
CC1=NCC2(CCN(C)CC2)S1 [AF150(S), 2-Methyl-spiro(1,3-thiazoline-5,4')-1'-methylpiperidine]	–	–	–	–	–	–	–	–	–	–	–	–	–	–	–	–	–	–	–	–	PI, % of carbachol effect [1]: 17%; PI (phosphoinositides hydrolysis) ([1]; tested at 1mM): +
C[N+](C)(C)CCOC(N)=O [Carbachol, reference compound]	–	–	–	–	–	–	–	–	–	–	–	–	–	–	–	–	–	–	–	–	AC (adenylate cyclase activity) [2]: +++
C[N+](C)(C)CC#CCOC(=O)Nc1cccc(Cl)c1 [McN-A-343]	30±7	5700 ± 200	13±5	340 ± 100	8500 ± 800	1.9	100	172	100	3800	6.4	11000	100	100	–	–	–	–	–	–	Ki ([3]; with Cu++ pretreatment (100 µM, 30 minutes), read-out: KH): 180 ± 90 nM; Basal 3H-ACh release [5]: 144%; Ki ([7]; Table 4, read-out: 3H-QNB-Binding KH (c)): 24400 nM
C[N+](C)(C)CC#CCN1CCCC1=O [Oxotremorine-M, reference compound]	–	–	–	–	–	0.6	26	–	53	100	0.69	69	49	49	336	0.14	74	69	5200	5200	% H ([8]; +G (0.1 mM GppNHp)): 2.7%; %L ([8]; +G (0.1 mM GppNHp)): 73%; % H ([8]; -G): 53%; %L ([8]; -G): 47%; Ki ([8]; KH, +G (0.1 mM GppNHp)): 350 nM; Ki ([8]; KH, -G (without GppNHp)): 110 nM; Ki ([8]; KL, +G (0.1 mM GppNHp)): 4200 nM; Ki ([8]; KL, -G): 6700 nM; KL-G / KH-G ([8]; ratio of low and high affinities without GppNHp): 61; accumulation of inositol-1-phosphate (IP1) stimulated over basal level [9]: 5.24 fold; %L [6]: 47%; RATIOS b:a [6]: 67; Ki ([6]; 3H-PZ-Binding KL (b)): 6700 nM; RATIOS d:b ([6]; KL cerebellum (3H-QNB) : KL cortex (3H-PZ)): 0.78; RATIOS d:c [7]: 75; %L ([7]; Table 4): 51%; % L2 ([7]; Table 5): 51%
O=C1CCCN1CC#CCN1CCCC1 [Oxotremorine]	51	7200 ± 1700	32	20 ± 5	13300 ± 1400	0.9	13	56	–	–	–	14	35	35	100	0.36	87	14	580	580	%H (% of high affinity state) ([3]; with Cu++ pretreatment (100 µM, 30 minutes), listed as 3): 51±7%; %H (% of high affinity state) ([3]; without pretreatment, listed as 3): 32±3%; RATIOS d:c [7]: 41; %L ([7]; Table 4): 65%; % L2 ([7]; Table 5): 65%
